Tests used:
Type in all cases: cell-based, human
[1] = tested on: hPDE5 mutants fused to GFP in HCT116 cells; experiment: Vardenafil dose response of combination mutants, MFI by FACS; conditions: for MFI / SR: 24 hours
Protocol: (§1) Mean fluorescence intensity (MFI) was measured by FACS. Parental HCT116 and cells expressing OT-hPDE5N-019 comprising hPDE5 wildtype construct were also included as controls. […] The destabilizing mutation coefficient ratio was calculated as the fold change in GFP intensity in the hPDE5 mutant constructs compared to the hPDE5 wildtype construct (OT-hPDE5N-019) in the absence of the ligand. Destabilizing mutation co-efficient ratios less than 1 are desirable. Stabilization ratios greater than 1 are desired in DDs.

[2] = tested on: hPDE5 mutants fused to GFP in HCT116 cells; experiment: Response to Sildenafil (5 or 0.5 μM) over time, MFI by FACS
Protocol: Mean fluorescence intensity (MFI) was measured by FACS. […] The destabilizing mutation coefficient was calculated as the fold change in GFP intensity in the hPDE5 mutant constructs compared to the hPDE5 wildtype construct (OT-hPDE5N-019) in the absence of the ligand. Destabilizing mutation coefficient less than 1 are desirable. Stabilization ratios greater than 1 are desired in DDs. The results and stabilization ratios for time course experiments with 5 or 0.5 μM are presented in Table 30 and Table 31 respectively.

[3] = tested on: hPDE5 truncation mutants (R732L) fused to AcGFP in HCT 116 cells; experiment: Western blot for AcGFP of hPDE5 truncation mutants with Vardenafil; conditions: 10 μM Vardenafil, 24 hours
Protocol: Protein expression analysis of the truncation mutants was performed in parallel via western blot. […] GAPDH levels were also analyzed to ensure even protein loading.

[4] = tested on: hPDE5 truncation mutants (R732L) fused to AcGFP in HCT-116 cells; experiment: Expression of hPDE5 truncation mutants, GFP MFI by FACS
Text: Several truncation mutants of the full length hPDE5 were generated to identify regions beyond the […] catalytic domain that may serve as a template for identifying DDs. The truncation mutants tested included amino acids 535-860 of hPDE5 WT (E535-Q860), amino acids 535 to 836 of hPDE5 WT (E535-S836), amino acids 590 to 860 of hPDE5 WT (M590-Q860), amino acids 590 to 836 of hPDE5 WT (M590-S836), wherein the amino acids positions are with respect to SEQ ID NO. 1. The DD mutation R732L was incorporated into all truncation mutants and its destabilizing potential was compared to E535-Q860 wildtype by fusing the mutants to an SG linker and reporter, AcGFP. […] As a control, parental untransduced cells and cells expressing OT-hPDE5N-001, or OT-hPDE5N-028 were also included in the analysis. The mean fluorescence intensity (MFI) of GFP was analyzed by FACS. […] The destabilizing mutation coefficient was calculated as the fold change in GFP intensity in the hPDE5 mutant constructs compared to the hPDE5 wildtype construct (OT-hPDE5N-019) in the absence of the ligand. Destabilizing mutation coefficients less than 1 are desirable. Stabilization ratios greater than 1 are desired in DDs.

[5] = tested on: hPDE5 mutants fused to GFP in HCT116 cells; experiment: Comparative analysis of hPDE5 ligands: stabilization ratios at the highest concentrations
Protocol: Mean fluorescence intensity (MFI) was measured by FACS. Parental HCT116 and cells expressing OT-hPDE5N-019 wildtype construct were also included as controls. […] The destabilizing mutation coefficient ratio was calculated as the fold change in GFP intensity in the hPDE5 mutant constructs compared to the hPDE5 wildtype construct (OT-hPDE5N-019) in the absence of the ligand. Destabilizing mutation coefficient ratios less than 1 are desirable. Stabilization ratios greater than 1 are desired in DDs.
as §1
The response of hPDE5 combination mutants to increasing doses of Tadalafil was tested. HCT116 cells transduced with hPDE5 constructs were treated with Tadalafil for 24 hours at doses ranging from 0.14 to 100 μM. Mean fluorescence intensity (MFI) was measured by FACS. Parental HCT116 and cells expressing OT-hPDE5N-019 comprising hPDE5 wildtype construct were also included as controls. The response of the combination mutants to Tadalafil was compared to the response of the single mutant construct OT-hPDE5N-020. The stabilization ratio (SR) was calculated as the fold change in GFP intensity in Tadalafil treated samples compared to treatment with DMSO (i.e. in the absence of ligand) with the same construct. The destabilizing mutation coefficient was calculated as the fold change in GFP intensity in the hPDE5 mutant constructs compared to the hPDE5 wildtype construct (OT-hPDE5N-0019) in the absence of the ligand. Destabilizing mutation coefficient less than 1 are desirable. Stabilization ratios greater than 1 are desired in DDs.

OT-hPDE5N-020: construct consisting of E535-Q860 amino acids of hPDE5 with the R732L mutant, SG linker, AcGFP; single mutant construct
MFI ([1]; DMSO, HCT116): 7829 | SR ([1]; Vardenafil 0.04 μM vs DMSO): 1.88 | MFI ([1]; Vardenafil 0.04 μM): 14745 | SR ([1]; Vardenafil 0.12 μM vs DMSO): 2.15 | MFI ([1]; Vardenafil 0.12 μM): 16866 | SR ([1]; Vardenafil 0.37 μM vs DMSO): 3.17 | MFI ([1]; Vardenafil 0.37 μM): 24847 | SR ([1]; Vardenafil 1.11 μM vs DMSO): 3.94 | MFI ([1]; Vardenafil 1.11 μM): 30879 | SR ([1]; Vardenafil 3.33 μM vs DMSO): 4.54 | MFI ([1]; Vardenafil 3.33 μM): 35564 | SR ([1]; Vardenafil 10 μM vs DMSO): 4.99 | MFI ([1]; Vardenafil 10 μM): 39089 | SR ([1]; Vardenafil 30 μM vs DMSO): 9.62 | MFI ([1]; Vardenafil 30 μM): 75323 | destabilizing mutation coefficient ([1]; Vardenafil dose response experiment, absence of ligand, vs OT-hPDE5N-019): 0.13 | stabilization ratios over time, Sildenafil 0.5 μM ([2]; 0-72 hours, HCT116): greater stabilization | MFI ([2]; Sildenafil 0.5 μM, 0 hours): 2727 | MFI ([2]; Sildenafil 0.5 μM, 4 hours): 4127 | Stabilization ratio ([2]; Sildenafil 0.5 μM, 4 hours): 1.51 | MFI ([2]; Sildenafil 0.5 μM, 8 hours): 5461 | Stabilization ratio ([2]; Sildenafil 0.5 μM, 8 hours): 2.00 | MFI ([2]; Sildenafil 0.5 μM, 12 hours): 9058 | Stabilization ratio ([2]; Sildenafil 0.5 μM, 12 hours): 3.32 | MFI ([2]; Sildenafil 0.5 μM, 16 hours): 14469 | Stabilization ratio ([2]; Sildenafil 0.5 μM, 16 hours): 5.31 | MFI ([2]; Sildenafil 0.5 μM, 20 hours): 16142 | Stabilization ratio ([2]; Sildenafil 0.5 μM, 20 hours): 5.92 | MFI ([2]; Sildenafil 0.5 μM, 24 hours): 20524 | Stabilization ratio ([2]; Sildenafil 0.5 μM, 24 hours): 7.53 | MFI ([2]; Sildenafil 0.5 μM, 48 hours): 45754 | Stabilization ratio ([2]; Sildenafil 0.5 μM, 48 hours): 16.78 | MFI ([2]; Sildenafil 0.5 μM, 72 hours): 58786 | Stabilization ratio ([2]; Sildenafil 0.5 μM, 72 hours): 21.56 | MFI ([2]; Sildenafil 5 μM, 0 hours): 2668 | MFI ([2]; Sildenafil 5 μM, 4 hours): 4236 | Stabilization ratio ([2]; Sildenafil 5 μM, 4 hours): 1.59 | MFI ([2]; Sildenafil 5 μM, 8 hours): 5672 | Stabilization ratio ([2]; Sildenafil 5 μM, 8 hours): 2.13 | MFI ([2]; Sildenafil 5 μM, 12 hours): 9097 | Stabilization ratio ([2]; Sildenafil 5 μM, 12 hours): 3.41 | MFI ([2]; Sildenafil 5 μM, 16 hours): 14855 | Stabilization ratio ([2]; Sildenafil 5 μM, 16 hours): 5.57 | MFI ([2]; Sildenafil 5 μM, 20 hours): 15529 | Stabilization ratio ([2]; Sildenafil 5 μM, 20 hours): 5.82 | MFI ([2]; Sildenafil 5 μM, 24 hours): 20955 | Stabilization ratio ([2]; Sildenafil 5 μM, 24 hours): 7.85 | MFI ([2]; Sildenafil 5 μM, 48 hours): 46604 | Stabilization ratio ([2]; Sildenafil 5 μM, 48 hours): 17.47 | MFI ([2]; Sildenafil 5 μM, 72 hours): 58479 | Stabilization ratio ([2]; Sildenafil 5 μM, 72 hours): 21.92 | AcGFP protein (western blot) with Vardenafil [3]: showed vardenafil dependent stabilization | ligand dependent stabilization (stabilization ratio) of truncation mutants ([4]; 10 μM Sildenafil or Vardenafil, 48 hours, HCT-116): strongest ligand dependent stabilization with both ligands | Sildenafil Stabilization ratio ([4]; 10 μM Sildenafil vs DMSO, 48 hours): 6.02 | Vardenafil Stabilization ratio ([4]; 10 μM Vardenafil vs DMSO, 48 hours): 10.08 | MFI Sildenafil ([4]; HCT-116, 10 μM Sildenafil, 48 hours): 55636 | MFI Vardenafil ([4]; HCT-116, 10 μM Vardenafil, 48 hours): 93216 | MFI DMSO ([4]; HCT-116, DMSO, 48 hours): 9248 | destabilizing mutation coefficient ([4]; vs hPDE5 wildtype construct in absence of ligand): 0.14 | Stabilization ratio ([5]; Sildenafil (30 μM)): 7.78 | Stabilization ratio ([5]; Tadalafil (100 μM)): 8.94 | Stabilization ratio ([5]; Vardenafil (30 μM)): 9.62
